Results as given in PMC5469811, “Identification of GXXXXG motif in Chrysophsin-1 and its implication in the design of analogs with cell-selective antimicrobial and anti-endotoxin activities” (Scientific Reports, 2017).
≈ marks a conversion by molar mass, not a printed value. Residues, ends and D or L forms follow the SMILES beside them.

How the values were obtained:
[1] = system: Candida albicans (ATCC 10231); experiment: microbe, parasite or virus in culture; type: cell-based; conditions: ATCC 10231, 48 h; read-out: Minimum inhibitory concentration (MIC)
Protocol: (§1) The anti- fungal activity of peptides was performed according to the standard micro broth dilution technique as per NCCLS guidelines. These plates were incubated in a moist chamber at 35 °C, and an absorbance at 492 nm was recorded on a VersaMax microplate reader after 48 h for C. albicans ATCC 10231 and C. parapsilosis ATCC 22019 and 72 h for C. neoformans.

[2] = system: Candida parapsilosis (ATCC 22019); experiment: microbe, parasite or virus in culture; type: cell-based; conditions: ATCC 22019, 48 h; read-out: Minimum inhibitory concentration (MIC)
Protocol: as §1

Cryptococcus neoformans = experiment: microbe, parasite or virus in culture; type: cell-based; conditions: 72 h; read-out: Minimum inhibitory concentration (MIC)
Protocol: as §1

[3] = system: Sporothrix schenckii (Patient isolates); experiment: microbe, parasite or virus in culture; type: cell-based; conditions: 48 h; read-out: Minimum inhibitory concentration (MIC)
E. coli (ATCC 25922) = type: cell-based, Escherichia coli; conditions: ATCC 25922, 1 h
Summary of the method: (§2)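 E. coli ATCC 25922 at 10^6 CFU/ml in MH broth with physiological divalent and monovalent salts was exposed to serial peptide dilutions, 18 h shaking at 37 °C, and MIC read. Variants: peptides preheated 1 h at 4, 60 or 90 °C, or assay diluent with 10% fetal bovine serum, 0.4% BSA, 0.02% acetic acid.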

E. coli ATCC 25922 [4] = type: cell-based, Escherichia coli; conditions: ATCC 25922, 18 h
Summary of the method: as §2

S. aureus (ATCC 25923) = type: cell-based, Staphylococcus aureus; conditions: ATCC 25923, 1 h
E. coli ATCC 25922 [5] = experiment: Synergy with conventional antibiotics, checkerboard titration; type: cell-based, Escherichia coli
Summary of the method: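 Checkerboard of 2-fold serial dilutions of peptide and antibiotic combined with log-phase bacteria, incubated 24 h at 37 °C. FIC index computed from combination versus single-agent MICs: <0.5 synergy, 0.5–1.0 additive, 1.0–4.0 indifferent, >4.0 antagonism.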

[6] = system: BALB/c mice challenged with lethal dose of LPS; experiment: Anti-LPS survival assay; type: in vivo, mouse; conditions: LPS 15 mgKg−1 i.p. plus peptide single dose 5 mgKg−1, 7 days, five mice per group, LPS-only mice all died within 24 h
Protocol: (§3) For survival assay, mice were challenged intraperitoneally with LPS at a lethal dose of 15 mgKg^−1 E. coli 0111:B4[5]. Control mice were injected with an equal volume of PBS. G13P-Chr-1 at a single dose of 5 mgKg^−1 was injected in the mice groups that were already administered with 15 mgKg^−1 of LPS. Each group contained five mice. The mortality of mice was monitored up to 7 days and weight change was monitored every day. The peptide G13P-Chr-1 only was also injected in two groups of mice at 5 mgKg^−1 and 10 mgKg^−1 to check any mortality in mice by peptide only treatment.

BALB/c mice = experiment: In vivo toxicity of peptide alone; parameters: species or system mouse; conditions: peptide alone 5 and 10 mgKg−1 i.p., seven days, five animals
Protocol: as §3

[7] = system: LPS-induced TNF-α, IL-6 and IFN-γ in serum of BALB/c mice; experiment: In vivo inhibition of LPS mediated cytokine production; parameters: species or system mouse; conditions: LPS 10 mgKg−1 plus peptide 3 mgKg−1, 1, 2, 4, 6 h, ELISA, versus LPS only
Protocol: Enzyme-linked immunosorbent assays (ELISAs) were carried out to estimate the amount of tumor necrosis factor alpha (TNF-α) and interleukin-1β (IL-1β) secreted by LPS-treated THP-1 cells in the presence of peptides after 4–6 h of incubation. The levels of these cytokines in the culture supernatant of untreated and LPS-treated cells were taken as the negative and positive respectively, to calculate the percent inhibition by the peptides. For RANTES estimation the peptide LPS incubation was kept up to 24 h. The experiments were repeated twice reported as percentage inhibition. The absorbance of LPS treated cell supernatant was taken as zero inhibition. Similar ELISAs were performed to estimate the amount of TNF-α IL-6 and IFN-γ secreted by BALB/c mouse blood, which was collected from the orbital sinus at different time points post LPS injection, by using enzyme-linked immunosorbent assay kits for mouse TNF-α (BD Biosciences), IL-6 (BD Biosciences) and IFN-γ (BD Biosciences).
All the mice were divided into three experimental groups. Except the control group which was injected with PBS only, the other two groups were challenged with E. coli O111: B4 LPS at 10 mgkg^−1 of body weight in the presence and in the absence of 3 mgkg^−1 peptide. Blood was collected 1, 2, 4 and 6 h post LPS and peptide injection by the retro-orbital bleeding of mice. […]

[8] = system: TNF-α in serum of BALB/c mice injected with E. coli ATCC 25922; experiment: In vivo TNF-α production after E. coli infection; conditions: BALB/c mice injected with mid-logarithmic phase E. coli ATCC 25922; two hours post infection; ELISA; versus untreated group
Protocol: Serum was isolated from the blood obtained by bleeding the mice retro-orbitally two hours post infection and ELISA was performed to determine the amount of TNF-α produced in the untreated group and the peptide-treated group.

SMILES: CC[C@H](C)[C@H](NC(=O)[C@H](C)NC(=O)[C@H](CCCCN)NC(=O)[C@@H]1CCCN1C(=O)[C@H](C)NC(=O)[C@H](Cc1c[nH]cn1)NC(=O)[C@@H](NC(=O)[C@H](C)NC(=O)CNC(=O)[C@H](CCCCN)NC(=O)[C@@H](NC(=O)[C@H](CC(C)C)NC(=O)[C@H](Cc1c[nH]c2ccccc12)NC(=O)CNC(=O)[C@H](Cc1ccccc1)NC(=O)[C@@H](N)Cc1ccccc1)[C@@H](C)CC)[C@@H](C)CC)C(=O)N[C@@H](Cc1c[nH]cn1)C(=O)NCC(=O)N[C@@H](CC(C)C)C(=O)N[C@H](C(=O)N[C@@H](Cc1c[nH]cn1)C(=O)N[C@@H](CCCNC(=N)N)C(=O)N[C@@H](CCCNC(=N)N)C(=O)N[C@@H](CCCNC(=N)N)C(=O)N[C@@H](Cc1c[nH]cn1)C(N)=O)[C@@H](C)CC [Peptide G13P-Chr-1] (H-FFGWLIKGAIHAPKAIHGLIHRRRH-NH2)
- MIC [1]: 13.6 µM (≈ 39.9 µg/mL)
- MIC [2]: 6.8 µM (≈ 19.9 µg/mL)
- MIC (Cryptococcus neoformans): 13.6 µM (≈ 39.9 µg/mL)
- MIC [3]: 27.2 µM (≈ 79.7 µg/mL)
- Antibacterial activity (MIC) after incubating peptide at 4 °C (E. coli (ATCC 25922)): 5 µM
- Antibacterial activity (MIC) after incubating peptide at 60 °C (E. coli (ATCC 25922)): 8.6 µM
- Antibacterial activity (MIC) after incubating peptide at 90 °C (E. coli (ATCC 25922)): 12.3 µM
- Antibacterial activity (MIC) in the presence of 10% FBS (E. coli ATCC 25922 [4]): 8.6 µM
- Antibacterial activity (MIC) in the presence of FeCl3 (E. coli ATCC 25922 [4]): 4.1 µM
- Antibacterial activity (MIC) in the presence of KCl (E. coli ATCC 25922 [4]): 4.3 µM
- Antibacterial activity (MIC) in the presence of MgCl2 (E. coli ATCC 25922 [4]): 4.3 µM
- Antibacterial activity (MIC) in the presence of NH4Cl (E. coli ATCC 25922 [4]): 2.0 µM
- Antibacterial activity (MIC) in the presence of NaCl (E. coli ATCC 25922 [4]): 8.6 µM
- Antibacterial activity (MIC) after incubating peptide at 4 °C (S. aureus (ATCC 25923)): 3 µM
- Antibacterial activity (MIC) after incubating peptide at 60 °C (S. aureus (ATCC 25923)): 13 µM
- Antibacterial activity (MIC) after incubating peptide at 90 °C (S. aureus (ATCC 25923)): 17.3 µM
- interaction of peptide with chloramphenicol (by FICI) (E. coli ATCC 25922 [5]): synergy (FICI < 0.5 is considered to indicate synergy)
- survival of mice [6]: 40%
- survival of mice (in vivo cytotoxicity) (BALB/c mice): 100%
- LPS-induced production of TNF-α, IL-6 and IFN-γ in serum [7]: significant reduction
- TNF-α production in serum [8]: significant reduction
